Source: ChEMBL document CHEMBL3871285, “NTS2-selective neurotensin mimetics with tetrahydrofuran amino acids” (Bioorg Med Chem, 2017)
*1 amine or outer side, *2 acyl side, *3 side chain or, on linkers, in order; H or OH if unused. Where a SMILES comes first, the peptide text is derived from it. [ ]: non-standard residue; d: D form. X2 = O=C([C@]1(N[*:1])CCO[C@@H]1c1ccc(Br)cc1)[*:2]; X1 = O=C([C@@]1(N[*:1])CCO[C@H]1c1ccc(O)cc1)[*:2]; X3 = O=C([C@]1(N[*:1])CCO[C@@H]1c1ccc(O)cc1)[*:2]

Key:
[1] = target: Neurotensin receptor type 2 (Homo sapiens, UniProt O95665); test: Displacement of [leucine-3H]NT (8 to 13 residues) from human NTS2 receptor expressed in HEK293 cell membranes after 60 mins by scintillation counting
[2] = target: Neurotensin receptor type 1 (Homo sapiens, UniProt P30989); test: Displacement of [3H]neurotensin from human NTS1 receptor expressed in CHOK1 cell membranes after 60 mins by scintillation counting; design: species or system CHO-K1
[3] = Selectivity ratio of IC50 for human NTS1 receptor expressed in CHOK1 cell membranes to IC50 for NTS2 receptor expressed in HEK293 cell membranes

Neurotensin receptor type 2, sequence (O95665 whole entry, the tested form may be a part): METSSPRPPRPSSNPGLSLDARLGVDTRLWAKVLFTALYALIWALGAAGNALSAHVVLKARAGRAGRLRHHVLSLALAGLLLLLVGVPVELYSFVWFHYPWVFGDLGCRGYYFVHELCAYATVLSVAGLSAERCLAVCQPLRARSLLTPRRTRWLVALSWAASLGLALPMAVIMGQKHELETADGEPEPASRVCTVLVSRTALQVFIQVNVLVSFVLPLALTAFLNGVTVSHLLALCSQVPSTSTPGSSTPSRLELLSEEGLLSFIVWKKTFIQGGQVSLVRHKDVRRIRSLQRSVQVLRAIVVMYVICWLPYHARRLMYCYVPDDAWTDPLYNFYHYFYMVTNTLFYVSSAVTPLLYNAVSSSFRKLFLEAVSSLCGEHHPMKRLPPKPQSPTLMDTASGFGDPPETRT
Neurotensin receptor type 1, sequence (P30989 whole entry): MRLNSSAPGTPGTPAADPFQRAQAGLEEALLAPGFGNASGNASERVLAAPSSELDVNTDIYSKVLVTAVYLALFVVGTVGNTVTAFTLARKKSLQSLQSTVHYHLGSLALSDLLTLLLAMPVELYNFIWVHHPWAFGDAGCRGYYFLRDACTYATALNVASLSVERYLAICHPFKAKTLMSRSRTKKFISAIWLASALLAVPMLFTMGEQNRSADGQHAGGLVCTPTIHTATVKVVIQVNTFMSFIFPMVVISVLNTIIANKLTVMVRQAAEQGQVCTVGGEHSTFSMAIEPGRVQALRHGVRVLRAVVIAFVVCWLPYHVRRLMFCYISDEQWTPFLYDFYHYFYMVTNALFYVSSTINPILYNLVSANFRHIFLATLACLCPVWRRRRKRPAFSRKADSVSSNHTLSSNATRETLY

| SMILES | Ki [1] [µM] | Ki [2] [µM] | Ratio Ki [3] |
| --- | --- | --- | --- |
| CC[C@H](C)[C@H](NC(=O)C1(NC(=O)[C@@H]2CCCN2C(=O)[C@H](CCCNC(=N)N)NC(=O)[C@@H](N)CCCNC(=N)N)CCOC1c1ccc(Br)cc1)C(=O)N[C@@H](CC(C)C)C(=O)O (some centres undefined) | 0.012 |  |  |
| CC[C@H](C)[C@H](NC(=O)[C@]1(NC(=O)[C@@H]2CCCN2C(=O)[C@H](CCCNC(=N)N)NC(=O)[C@@H](N)CCCNC(=N)N)CCO[C@@H]1c1ccc(Br)cc1)C(=O)N[C@@H](CC(C)C)C(=O)O | 0.615 |  |  |
| CC[C@H](C)[C@H](NC(=O)[C@@H](Cc1ccc(Br)cc1)NC(=O)[C@@H]1CCCN1C(=O)[C@H](CCCCN)NC(=O)[C@@H](N)CCCCN)C(=O)N[C@@H](CC(C)C)C(=O)O | 0.873 | 2.17 |  |
| CC[C@H](C)[C@H](NC(=O)[C@]1(NC(=O)[C@@H]2CCCN2C(=O)[C@H](CCCNC(=N)N)NC(=O)[C@@H](N)CCCNC(=N)N)CCO[C@@H]1c1ccc(O)cc1)C(=O)N[C@@H](CC(C)C)C(=O)O | 0.012 |  |  |
| CC[C@H](C)[C@H](NC(=O)[C@H](Cc1ccc(Br)cc1)NC(=O)[C@@H]1CCCN1C(=O)[C@H](CCCCN)NC(=O)[C@@H](N)CCCCN)C(=O)N[C@@H](CC(C)C)C(=O)O | 0.069 | 0.093 |  |
| CC[C@H](C)[C@H](NC(=O)[C@]1(NC(=O)[C@@H]2CCCN2C(=O)[C@H](CCCCN)NC(=O)[C@@H](N)CCCCN)CCO[C@@H]1c1ccc(Br)cc1)C(=O)N[C@@H](CC(C)C)C(=O)O (H-KKP[X2]IL-OH) |  | 13 |  |
| CC[C@H](C)[C@H](NC(=O)[C@]1(NC(=O)[C@@H]2CCCN2C(=O)[C@H](CCCNC(=N)N)NC(=O)[C@@H](N)CCCCN)CCO[C@@H]1c1ccc(Br)cc1)C(=O)N[C@@H](CC(C)C)C(=O)O (H-KRP[X2]IL-OH) | 0.11 | 5 |  |
| CC[C@H](C)[C@H](NC(=O)[C@]1(NC(=O)[C@@H]2CCCN2C(=O)[C@H](CCCCN)NC(=O)[C@@H](N)CCCNC(=N)N)CCO[C@@H]1c1ccc(Br)cc1)C(=O)N[C@@H](CC(C)C)C(=O)O (H-RKP[X2]IL-OH) |  | 10 |  |
| CC(C)C[C@H](NC(=O)CNC(=O)[C@@]1(NC(=O)[C@@H]2CCCN2C(=O)[C@H](CCCNC(=N)N)NC(=O)[C@@H](N)CCCNC(=N)N)CCO[C@H]1c1ccc(O)cc1)C(=O)O (H-RRP[X1]GL-OH) | 0.029 | 35 | >1000 |
| CC(C)C[C@H](NC(=O)CNC(=O)[C@]1(NC(=O)[C@@H]2CCCN2C(=O)[C@H](CCCNC(=N)N)NC(=O)[C@@H](N)CCCNC(=N)N)CCO[C@@H]1c1ccc(O)cc1)C(=O)O (H-RRP[X3]GL-OH) | 0.7 | 20 |  |
| CC(C)C[C@H](NC(=O)C1(NC(=O)[C@@H]2CCCN2C(=O)[C@H](CCCCN)NC(=O)[C@@H](N)CCCCN)CCOC1c1ccc(Br)cc1)C(=O)O (stereo in doubt; 7-1) | 27 | 67 |  |
| CC(C)C[C@H](NC(=O)C1(NC(=O)[C@@H]2CCCN2C(=O)[C@H](CCCCN)NC(=O)[C@@H](N)CCCCN)CCOC1c1ccc(Br)cc1)C(=O)O (stereo in doubt; 7-2) | 2.03 | 95.5 |  |
| CC(C)C[C@H](NC(=O)C1(NC(=O)[C@@H]2CCCN2C(=O)[C@H](CCCNC(=N)N)NC(=O)[C@@H](N)CCCCN)CCOC1c1ccc(Br)cc1)C(=O)O (stereo in doubt; 8-1) | 28 | 53 |  |
| CC(C)C[C@H](NC(=O)C1(NC(=O)[C@@H]2CCCN2C(=O)[C@H](CCCNC(=N)N)NC(=O)[C@@H](N)CCCCN)CCOC1c1ccc(Br)cc1)C(=O)O (stereo in doubt; 8-2) | 11 | 92.3 |  |
| CC(C)C[C@H](NC(=O)C1(NC(=O)[C@@H]2CCCN2C(=O)[C@H](CCCCN)NC(=O)[C@@H](N)CCCNC(=N)N)CCOC1c1ccc(Br)cc1)C(=O)O (stereo in doubt; 9-1) |  | 70.5 |  |
| CC(C)C[C@H](NC(=O)C1(NC(=O)[C@@H]2CCCN2C(=O)[C@H](CCCCN)NC(=O)[C@@H](N)CCCNC(=N)N)CCOC1c1ccc(Br)cc1)C(=O)O (stereo in doubt; 9-2) |  | > 100 |  |
| CC(C)C[C@H](NC(=O)C1(NC(=O)[C@@H]2CCCN2C(=O)[C@H](CCCNC(=N)N)NC(=O)[C@@H](N)CCCNC(=N)N)CCOC1c1ccc(Br)cc1)C(=O)O (stereo in doubt; 10-1) | 49 | 91.5 |  |
| CC(C)C[C@H](NC(=O)C1(NC(=O)[C@@H]2CCCN2C(=O)[C@H](CCCNC(=N)N)NC(=O)[C@@H](N)CCCNC(=N)N)CCOC1c1ccc(Br)cc1)C(=O)O (stereo in doubt; 10-2) | 1.43 | 72.5 |  |
| CC(C)C[C@H](NC(=O)CNC(=O)C1(NC(=O)[C@@H]2CCCN2C(=O)[C@H](CCCCN)NC(=O)[C@@H](N)CCCCN)CCOC1c1ccc(Br)cc1)C(=O)O (stereo in doubt; 16-1) | 0.5 | > 50 |  |
| CC(C)C[C@H](NC(=O)CNC(=O)C1(NC(=O)[C@@H]2CCCN2C(=O)[C@H](CCCCN)NC(=O)[C@@H](N)CCCCN)CCOC1c1ccc(Br)cc1)C(=O)O (stereo in doubt; 16-2) | 1.95 | 35 |  |
